The text below walks through data of US10316039B2, “P2X3 and/or P2X2/3 compounds and methods” (Asana Biosciences, LLC, priority 2013, dated 2019).

One assay deals with T1, P2X3 (UniProt P56373).
T1 sequence (P56373 1-397): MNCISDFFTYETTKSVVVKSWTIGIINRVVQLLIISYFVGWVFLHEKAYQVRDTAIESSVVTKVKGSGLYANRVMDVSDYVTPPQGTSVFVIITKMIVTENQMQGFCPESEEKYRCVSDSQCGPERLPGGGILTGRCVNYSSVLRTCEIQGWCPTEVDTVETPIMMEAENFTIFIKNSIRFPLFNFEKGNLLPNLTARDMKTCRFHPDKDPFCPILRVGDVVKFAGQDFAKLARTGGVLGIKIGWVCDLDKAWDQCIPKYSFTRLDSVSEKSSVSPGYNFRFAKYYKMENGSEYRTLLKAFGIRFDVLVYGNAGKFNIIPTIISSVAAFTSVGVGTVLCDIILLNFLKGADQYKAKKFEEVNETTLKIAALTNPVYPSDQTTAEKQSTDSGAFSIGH
The assay is described as follows: P2X3 FLIPR intracellular calcium assay. Format: cell-based. As to conditions: agonist at EC75, species (human or rat) not given. The gist of the method:
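Human P2X3-HEK, human P2X2/3-TRex293, rat P2X2/3-TRex293 or rat P2X3 TRex-CHO cells loaded with Calcium 4 dye (1.8 mM probenecid, pH 7.4).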
For orientation: Calcium flux is commonly read through the fluorescence of an indicator in the cells.

The target in the next assay is T2, P2X2/3 (Homo sapiens, UniProt P56373+Q9UBL9).
T2 sequence (Q9UBL9 1-471): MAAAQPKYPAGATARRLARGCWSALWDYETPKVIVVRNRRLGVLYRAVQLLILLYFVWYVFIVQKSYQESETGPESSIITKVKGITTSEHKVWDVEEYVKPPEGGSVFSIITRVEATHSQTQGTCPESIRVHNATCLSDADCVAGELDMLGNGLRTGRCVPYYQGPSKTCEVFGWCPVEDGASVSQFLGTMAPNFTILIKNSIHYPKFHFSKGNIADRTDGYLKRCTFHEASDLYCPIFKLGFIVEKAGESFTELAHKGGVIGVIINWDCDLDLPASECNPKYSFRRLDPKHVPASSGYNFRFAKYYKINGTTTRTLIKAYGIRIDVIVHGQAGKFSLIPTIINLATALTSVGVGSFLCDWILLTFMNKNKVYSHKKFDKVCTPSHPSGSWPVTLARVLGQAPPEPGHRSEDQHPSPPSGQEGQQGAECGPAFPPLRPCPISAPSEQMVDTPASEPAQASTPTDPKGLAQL
T2 sequence (P56373 1-397): T1 sequence (P56373 1-397)
The assay can be described thus: P2X2/3 FLIPR intracellular calcium assay. Format: cell-based. As to conditions: agonist at EC75, species (human or rat) not given. Summed up: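 Stable human P2X2/3 TRex293 cells (doxycycline-induced) loaded with Calcium 4 dye; compounds, 11-point half-log series from 2 mM top stock, preincubated 15 min at RT in HBSS/HEPES pH 7.4 with 1.8 mM CaCl2. Agonist added at EC75; fluorescence change versus no-compound wells gave IC50.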

A value given as a limit tells only on which side of the number the result lay.

For `Cc1ncc(CNC(=O)c2cc(-n3nncc3C(F)F)c3ncc(-c4cnc(C)s4)n3c2)cn1` [Example 66], the IC50 on P2X3 and on P2X2/3 was 0.1 to 1 µM each time.
For `CC[C@H](NC(=O)c1cc(-n2nncc2C(C)(C)C)c2ncc(-c3ccc(C)s3)n2c1)c1nnc[nH]1` [Example 67], the IC50 on P2X3 and at P2X2/3 was 0.001 to 0.1 µM in each case.
For `Cc1ncc(CNC(=O)c2cc(-n3nncc3C(F)(F)F)c3ncc(-c4ncc(C)s4)n3c2)cn1` [Example 68], the IC50 on P2X3 is 0.001 to 0.1 µM; on P2X2/3, 0.1 to 1 µM.
Regarding `CC[C@H](NC(=O)c1cc(-n2nncc2C(C)C)c2ncc(-c3ccc(Cl)s3)n2c1)c1nnc[nH]1` [Example 69], the values for the IC50 on P2X3 and on P2X2/3 were 0.001 to 0.1 µM and 0.1 to 1 µM, respectively.
For `Cc1ccc(-c2cnc3c(-n4nncc4C(C)(F)F)cc(C(=O)N[C@@H](C)c4nnc[nH]4)cn23)s1` [Example 70] the same measures were 0.001 to 0.1 µM and 0.001 to 0.1 µM.
Taken in the same sequence, the figures for `Cc1ncc(CNC(=O)c2cc(-n3nncc3C(C)(F)F)c3ncc(-c4ncc(C)s4)n3c2)cn1` [Example 71] were 0.001 to 0.1 µM and 0.1 to 1 µM.
For `Cc1ncc(CNC(=O)c2cc(-n3nncc3C(C)(F)F)c3ncc(-c4ccc(C)s4)n3c2)cn1` [Example 72] the same measures were 0.001 to 0.1 µM and 0.001 to 0.1 µM.
Consider `CCc1cnnn1-c1cc(C(=O)N[C@H](c2nnc[nH]2)C(C)C)cn2c(-c3ccc(C)s3)cnc12` [Example 73], for which the IC50 at P2X3 and on P2X2/3 was 0.1 to 1 µM throughout.
In the case of `Cc1ccc(-c2cnc3c(-n4nncc4C)cc(C(=O)N[C@H](c4nnc[nH]4)C(C)C)cn23)s1` [Example 74], the IC50 at P2X3 lay in the range of 0.1 to 1 µM; on P2X2/3, 1 to 10 µM.
For `CCc1cnnn1-c1cc(C(=O)NCc2cnc(C)nc2)cn2c(-c3ncc(C)s3)cnc12` [Example 75] the same measures were 0.001 to 0.1 µM and 0.1 to 1 µM.
For `C[C@H](NC(=O)c1cc(-n2nncc2C(C)(F)F)c2ncc(-c3ccc(Cl)s3)n2c1)c1nnc[nH]1` [Example 76] the same measures were 0.001 to 0.1 µM and 0.001 to 0.1 µM.
Taken in the same sequence, the figures for `Cc1cnc(CNC(=O)c2cc(-n3nncc3C(F)F)c3ncc(-c4ncc(C)s4)n3c2)cn1` [Example 77] were 0.001 to 0.1 µM and 0.1 to 1 µM.
For `Cc1cnc(CNC(=O)c2cc(-n3nncc3C(F)F)c3ncc(-c4ccc(C)o4)n3c2)cn1` [Example 78], the 50% inhibitory concentration (IC50) on P2X3 and at P2X2/3 was 0.001 to 0.1 µM throughout.
For `C[C@H](NC(=O)c1cc(-n2nncc2C(F)(F)F)c2ncc(-c3ccc(Cl)s3)n2c1)c1nnc[nH]1` [Example 79], the IC50 on P2X3 and on P2X2/3 was 0.001 to 0.1 µM throughout.
Regarding `Cc1ncc(CNC(=O)c2cc(-n3nncc3CC(F)(F)F)c3ncc(-c4ccc(C)s4)n3c2)cn1` [Example 80], the IC50 on P2X3 and on P2X2/3 was 0.001 to 0.1 µM in each case.
With `Cc1ccc(-c2cnc3c(-n4nncc4CC(F)(F)F)cc(C(=O)N[C@@H](C)c4nnc[nH]4)cn23)s1` [Example 81], the IC50 at P2X3 and at P2X2/3 was 0.001 to 0.1 µM throughout.
Consider `Cc1ncc(CNC(=O)c2cc(-n3nncc3CC(F)(F)F)c3ncc(-c4ncc(C)s4)n3c2)cn1` [Example 82], for which the IC50 at P2X3 lay within 0.001 to 0.1 µM; on P2X2/3, 0.1 to 1 µM.
Taken in the same sequence, the figures for `COc1ccc(CNC(=O)c2cc(-n3nncc3C(F)F)c3ncc(-c4ccc(C)s4)n3c2)cn1` [Example 83] were 0.001 to 0.1 µM and 0.001 to 0.1 µM.
For `Cc1ncc([C@@H](C)NC(=O)c2cc(-n3nncc3C(F)F)c3ncc(-c4ncc(C)s4)n3c2)cn1` [Example 84] the same measures were 0.001 to 0.1 µM and 0.001 to 0.1 µM.
Taken in the same sequence, the figures for `Cc1noc([C@@H](C)NC(=O)c2cc(-n3nncc3C(F)F)c3ncc(-c4ccc(C)s4)n3c2)n1` [Example 85] were 0.001 to 0.1 µM and 0.001 to 0.1 µM.
Consider `COc1ncc(CNC(=O)c2cc(-n3nncc3C(F)(F)F)c3ncc(-c4ncc(C)s4)n3c2)cn1` [Example 86], for which the IC50 on P2X3 and on P2X2/3 was 0.1 to 1 µM in each case.
For `Cc1ccc(CNC(=O)c2cc(-n3nncc3C(C)(F)F)c3ncc(-c4ncc(C)s4)n3c2)cn1` [Example 87], the IC50 at P2X3 and on P2X2/3 was 0.1 to 1 µM throughout.
Consider `CCc1cnnn1-c1cc(C(=O)N[C@H](C)c2nc(C)no2)cn2c(-c3ccc(C)s3)cnc12` [Example 88], for which the IC50 is greater than 10 µM at P2X3 and 0.001 to 0.1 µM on P2X2/3.
`Cc1ccc(-c2cnc3c(Nc4ccccc4)cc(C(=O)NCc4ccn(C)c(=O)c4)cn23)s1` [Example 90]: the 50% inhibitory concentration (IC50) at P2X3 lay in the range of 0.001 to 0.1 µM; on P2X2/3 it was 1 to 10 µM.
Turning to `Cc1ccc(CNC(=O)c2cc(Nc3ccccc3)c3ncc(-c4ccc(C)s4)n3c2)cn1` [Example 91], the IC50 at P2X3 lay within 0.1 to 1 µM; at P2X2/3, 1 to 10 µM.
Take `Cc1ccc(-c2cnc3c(Nc4nccs4)cc(C(=O)N[C@@H](C)c4nnc[nH]4)cn23)s1` [Example 92]: the IC50 was 0.1 to 1 µM at P2X3 and 1 to 10 µM on P2X2/3.
Taken in the same sequence, the figures for `Cc1ccc(-c2cnc3c(Nc4nccs4)cc(C(=O)NCc4ccn(C)c(=O)c4)cn23)s1` [Example 93] were 0.1 to 1 µM and 1 to 10 µM.
Taken in the same sequence, the figures for `Cc1ccc(-c2cnc3c(Nc4ncc(C)s4)cc(C(=O)N[C@@H](C)c4nnc[nH]4)cn23)s1` [Example 94] were 0.001 to 0.1 µM and 1 to 10 µM.
For `Cc1ccc(-c2cnc3c(Nc4ccc(F)cc4)cc(C(=O)N[C@@H](C)c4nnc[nH]4)cn23)s1` [Example 95] the same measures were 0.001 to 0.1 µM and greater than 10 µM.
Turning to `COc1ccccc1Nc1cc(C(=O)N[C@@H](C)c2nnc[nH]2)cn2c(-c3ccc(C)s3)cnc12` [Example 96], the IC50 on P2X3 and on P2X2/3 was 0.1 to 1 µM throughout.
On to `Cc1ccc(CNC(=O)c2cc(-c3cnn(C)c3)c3ncc(-c4ccc(C)s4)n3c2)cn1` [Example 98], for which the results for the IC50 at P2X3 and on P2X2/3 were 1 to 10 µM and 0.1 to 1 µM, respectively.
Taken in the same sequence, the figures for `Cc1ccc(-c2cnc3c(-c4cnn(C)c4)cc(C(=O)NCc4ccn(C)c(=O)c4)cn23)s1` [Example 99] were 0.001 to 0.1 µM and 1 to 10 µM.
For `Cc1ccc(-c2cnc3c(-c4ccnn4C)cc(C(=O)N[C@@H](C)c4nnc[nH]4)cn23)s1` [Example 100] the same measures were 0.001 to 0.1 µM and 0.1 to 1 µM.
Taken in the same sequence, the figures for `Cc1ccc(-c2cc(C(=O)N[C@@H](C)c3nnc[nH]3)cn3c(-c4ccc(C)s4)cnc23)s1` [Example 101] were 0.001 to 0.1 µM and 0.001 to 0.1 µM.
On to `Cc1ccc(-c2cnc3c(-c4c(C)noc4C)cc(C(=O)N[C@@H](C)c4nnc[nH]4)cn23)s1` [Example 102], for which the IC50 on P2X3 and at P2X2/3 was 0.001 to 0.1 µM each time.
`CCn1nccc1-c1cc(C(=O)N[C@@H](C)c2nnc[nH]2)cn2c(-c3ccc(C)s3)cnc12` [Example 103]: the IC50 lay in the range of 0.001 to 0.1 µM on P2X3 and 0.1 to 1 µM on P2X2/3.
For `Cc1ccc(-c2cnc3c(-c4cnn(CC5CC5)c4)cc(C(=O)N[C@@H](C)c4nnc[nH]4)cn23)s1` [Example 104] the same measures were 0.001 to 0.1 µM and 0.1 to 1 µM.
For `Cc1ccc(-c2cnc3c(-c4cnn(CCF)c4)cc(C(=O)N[C@@H](C)c4nnc[nH]4)cn23)s1` [Example 105] the same measures were 0.001 to 0.1 µM and 0.1 to 1 µM.
For `Cc1ccc(CNC(=O)c2cc(-c3c(C)noc3C)c3ncc(-c4ccc(C)s4)n3c2)cn1` [Example 106] the same measures were greater than 10 µM and 0.001 to 0.1 µM.

The term IC50 denotes the concentration that gives 50% inhibition.
